Experimental data from patent publication US20110319347A1, “ANTIOXIDANT AGENT” (priority 2009, published 2011).

Tests used:
[1] = DPPH radical scavenging ability; assay type: biochemical; settings: for BHT-Relative Antioxidant Ability (%) DPPH Method: sample concentration 500 μM, 50 minutes at room temperature, absorbance at 517 nm, relative to 500 μM BHT; for Radical scavenging ability (DPPH) compared in words with BHT or Pro-His-His: 500 μM
From the text: (§1) The antioxidant action of a peptide may be determined by a known method such as DPPH method or β-carotene bleaching method (see, e.g., Chen, H M., Muramoto, K., Yamauchi, F., and Nokihara, K., J. Agric. Food Chem., 44, 2619-2623, 1996. Antioxidant Activity of Designed Peptides Based on the Antioxidative Peptide Isolated from Digests of a Soybean Protein). DPPH method is to measure radical scavenging ability using 1,1-diphenyl-2-picrylhydrazyl (DPPH). […] In addition, the level of an antioxidant action can be evaluated by the degree of decrease of absorbance. β-carotene bleaching method is to calculate antioxidant ability of an analyte by autoxidizing a mixture of β-carotene, linoleic acid and the analyte and measuring suppression of β-carotene oxidization. […] In addition, the level of an antioxidant action can be evaluated by the degree of decrease of absorbance. Such known evaluation methods as described above reflect a part of antioxidant mechanisms which act in a living body in parallel.
Next, DPPH was dissolved in ethanol to prepare 10 mL of 0.1 mM DPPH-ethanol solution, and 0.15 mL of this DPPH-ethanol solution and 0.15 mL of the above-prepared undiluted solution were mixed and stirred (the sample concentration: 500 μM). The reaction was allowed to proceed for 50 minutes at room temperature, and the absorbance at 517 nm wavelength was measured with a UV-VIS spectrophotometer (JASCO V-570). For blanks, a blank solution was prepared using the same volume of ethanol instead of DPPH, and the absorbance of the blank solution was measured via the same reaction condition. For controls, a control solution was prepared using ethanol instead of sample solutions, and the absorbance of the control solution was measured via the same reaction condition.
The DPPH radical scavenging ability was calculated according to the following formula.
Radical Scavenging Ability AntOx(%)=(Acon−Asam)/Acon×100
Acon=The absorbance of the control after being left to stand for 50 minutes. Asam=The absorbance of the sample after being left to stand for 50 minutes.
(§2) The BHT-relative antioxidant ability was calculated according to the following formula.
BHT-Relative Antioxidant Ability(%)=[AntOx(%)]/[500 μM BHT(%)]×100

[2] = β-carotene bleaching method (carotene-linoleic acid autoxidation); assay type: biochemical; settings: for BHT-Relative Antioxidant Ability (%) β-Carotene Method: sample concentration 5 μM, 50 minutes at 50° C., absorbance at 492 nm, relative to 5 μM BHT; for Antioxidant ability (β-carotene method) compared in words with BHT or Pro-His-His: 5 μM
From the text: as §1
β-carotene was dissolved in chloroform to prepare 1 mg/mL solution. Linoleic acid was dissolved in chloroform to prepare 0.1 g/mL solution. Tween 40 was dissolved in chloroform to prepare 0.2 g/mL solution. Into 100 mL recovery flasks, 0.15 mL of β-carotene solution in chloroform, 0.1 mL of linoleic acid solution in chloroform, and 0.3 mL of Tween 40 solution in chloroform were aliquoted, and the mixed solution was evaporated to dryness with an evaporator until the smell of chloroform was completely disappeared. The dried mixture was dissolved in 30 mL of pure water, and 2.7 mL of 0.2 M phosphate buffer (pH 6.8) was further added thereto, followed by gentle stirring to prepare carotene-linoleic acid solution. Next, the peptides obtained in Example 1 were dissolved in ethanol to prepare 1 mL of 0.05 mM peptide solutions, respectively.
Thereafter, 0.45 mL of carotene-linoleic acid solution and 0.05 mL of undiluted sample solution were mixed and stirred (sample concentration: 5 μM), and the reaction was allowed to proceed for 50 minutes at 50° C. Five minutes and 50 minutes after the start of the reaction, the absorbance at OD 492 nm was measured with a UV-VIS spectrophotometer. For blanks, a blank solution was prepared using the same volume of distilled water instead of carotene-linoleic acid solution, and the absorbance of the blank solution was measured via the same reaction condition. For controls, a control solution was prepared using ethanol instead of sample solutions, and the absorbance of the control solution was measured via the same reaction condition.
The antioxidant ability was calculated according to the following formula.
Antioxidant ability(%)=[1-−A5S−A50S)/(A5C−A50C)]×100
A5C=The absorbance of the control after 5-minute reaction. A5S=The absorbance of the sample after 5-minute reaction. A50C=The absorbance of the control after 50-minute reaction. A50S=The absorbance of the sample after 50-minute reaction.
as §2
BHT-Relative Antioxidant Ability(%)=[AntOx(%)]/[5 μM BHT(%)]×100

ddY mice = assay: Acute dermal toxicity study of mimosine cream; assay type: in vivo; settings: cream applied to shaved trunk twice a day for three days; skins surveyed at day 5
Protocol: Vegetable emulsified wax (emulsifying wax, Orangeflower Inc., ingredients: stearyl alcohol, polysorbate 60) and oil (edible olive oil, Ajinomoto Co., Inc.) were completely melted in hot water (50° C.). Warm water (ultrapure water) was added thereto, and the mixture was mixed. An aqueous solution of mimosine or mimosine-introduced peptide was added thereto, and the mixture was completely mixed up. The obtained mixture was stored at 4° C. until use in the animal experiment.
The left and right sides of the trunk of ddY mice (9-week-old, male, 6 mice in each group) were shaved with clippers under anesthesia with ether. […] Any special changes were not observed. […] Therefore, it is thought that mimosine and mimosine-introduced peptide can be utilized in the cosmetic field.

Mushroom tyrosinase = Mushroom tyrosinase (Agaricus bisporus, UniProt C7FF04); assay: Tyrosinase inhibitory activity with L-DOPA as substrate; assay type: biochemical; settings: for IC50: pH 6.8, room temperature, absorbance at 475 nm for 60 seconds, read-out: IC50 for tyrosinase inhibition
Protocol: Tyrosinase inhibitory activity of a peptide can be evaluated by a known method using tyrosinase and its substrate such as L-dihydroxyphenylalanine (L-DOPA) or L-tyrosine. Specific examples of the evaluation method are described in the Examples below. For example, a peptide whose tyrosinase inhibitory activity should be measured, tyrosinase, and its substrate are dissolved in phosphate buffer, respectively (the peptide and tyrosinase may be dissolved in the same solution). Immediately after mixing the three components, change in absorbance at 475 nm is measured with a spectrophotometer. Since melanin has an absorption maximum at 475 nm, absorbance at 475 nm increases if melanin is synthesized from L-DOPA by tyrosinase. […] Therefore, the tyrosinase inhibitory activity of a peptide can be evaluated based on the change in absorbance.
Mushroom tyrosinase (SIGMA-Aldrich, Missouri, USA)
L-DOPA (SIGMA-Aldrich, Missouri, USA)
50 mM Sodium phosphate buffer (pH 6.8)
Using 50 mM sodium phosphate buffer (pH 6.8), 5 mM L-DOPA solution, mushroom tyrosinase solution (2 units/μL) and 1 mM inhibitor stock solution (×10) were prepared.
Reaction Solution A (25 μL of 5 mM DOPA solution; 75 μL of 50 mM sodium phosphate buffer (pH 6.8)) and Reaction Solution B (25 μL of inhibitor stock solution; 12.5 μL of tyrosinase solution; 112.5 μL of 50 mM sodium phosphate buffer (pH 6.8)) were prepared in two Eppendorf tubes, respectively. Reaction Solutions A and B were mixed just before the measurement, and the absorbance at 475 nm wavelength was measured with a spectrophotometer (V-570, Jasco, Tokyo, Japan). The measurement was carried out for 60 seconds at room temperature, and the absorbance was recorded every 1 second. This operation was repeated 3 times for each sample concentration.
The tyrosinase activity ratio at each inhibitor concentration was calculated based on the control (tyrosinase alone) value, and IC50s for tyrosinase inhibition of the samples were calculated using Ngraph. The fitting formula below was used in the calculation.
y=a−(a−b)/(1+(x/c)̂d (a=Minimum value of y; b=Maximum value of y; c=[…]; d=Variable)

Sequence of Mushroom tyrosinase (G1K3P4 entry or part of it): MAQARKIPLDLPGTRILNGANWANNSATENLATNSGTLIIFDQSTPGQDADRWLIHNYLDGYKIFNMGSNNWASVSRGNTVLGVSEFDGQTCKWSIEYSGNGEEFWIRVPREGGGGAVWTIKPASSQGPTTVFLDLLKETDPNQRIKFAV
Sequence of Mushroom tyrosinase (C7FF04 1-392): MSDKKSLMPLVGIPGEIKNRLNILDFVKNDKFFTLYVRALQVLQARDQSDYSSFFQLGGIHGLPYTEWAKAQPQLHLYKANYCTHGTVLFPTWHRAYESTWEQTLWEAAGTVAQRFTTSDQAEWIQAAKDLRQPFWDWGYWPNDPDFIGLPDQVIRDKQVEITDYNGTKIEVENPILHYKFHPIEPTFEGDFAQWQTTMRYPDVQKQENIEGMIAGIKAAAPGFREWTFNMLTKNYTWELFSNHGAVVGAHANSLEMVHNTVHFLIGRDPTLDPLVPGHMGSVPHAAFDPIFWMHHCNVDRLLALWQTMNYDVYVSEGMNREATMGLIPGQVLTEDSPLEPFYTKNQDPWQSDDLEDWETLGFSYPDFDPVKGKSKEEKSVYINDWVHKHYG

Cc1cc(C(C)(C)C)c(O)c(C(C)(C)C)c1 [BHT, butylated hydroxytoluene, reference compound]
BHT-Relative Antioxidant Ability (%) DPPH Method [1]: 100.00%
BHT-Relative Antioxidant Ability (%) β-Carotene Method [2]: 100.00%

NC(Cn1ccc(=O)c(O)c1)C(=O)O (stereo not drawn) [Mimosine]
Acute dermal toxicity (skin condition) (ddY mice): neither mimosine nor a mimosine-introduced peptide has an acute dermal toxicity

Arg-His-Trp [Sample 5X, reference compound]
BHT-Relative Antioxidant Ability (%) DPPH Method [1]: 11.26%
BHT-Relative Antioxidant Ability (%) β-Carotene Method [2]: 41.37%

Leu-His-Mim [Sample 8]
BHT-Relative Antioxidant Ability (%) DPPH Method [1]: 26.45%
BHT-Relative Antioxidant Ability (%) β-Carotene Method [2]: 77.79%

Leu-His-Trp [Sample 8X, reference compound]
BHT-Relative Antioxidant Ability (%) DPPH Method [1]: 41.92%
BHT-Relative Antioxidant Ability (%) β-Carotene Method [2]: 46.79%

Leu-Trp-Mim [Sample 9]
BHT-Relative Antioxidant Ability (%) DPPH Method [1]: 41.02%
BHT-Relative Antioxidant Ability (%) β-Carotene Method [2]: 77.32%

Leu-Trp-Trp [Sample 6X, reference compound]
BHT-Relative Antioxidant Ability (%) DPPH Method [1]: 73.27%
BHT-Relative Antioxidant Ability (%) β-Carotene Method [2]: 28.28%

Mim-Arg-Tyr [Sample 2]
BHT-Relative Antioxidant Ability (%) DPPH Method [1]: 77.89%
BHT-Relative Antioxidant Ability (%) β-Carotene Method [2]: 66.77%

Mim-His-Trp [Sample 5]
Radical scavenging ability (DPPH) compared in words with BHT or Pro-His-His [1]: at the same level as or higher than BHT
BHT-Relative Antioxidant Ability (%) DPPH Method [1]: 99.06%
Tyrosinase inhibitory activity compared in words with mimosine or kojic acid (Mushroom tyrosinase): higher than kojic acid
IC50 (Mushroom tyrosinase): 3.02 µM
Antioxidant ability (β-carotene method) compared in words with BHT or Pro-His-His [2]: at the same level as BHT
BHT-Relative Antioxidant Ability (%) β-Carotene Method [2]: 92.66%

Mim-His-Tyr [Sample 3]
BHT-Relative Antioxidant Ability (%) DPPH Method [1]: 84.88%
IC50 (Mushroom tyrosinase): 8.84 µM
Antioxidant ability (β-carotene method) compared in words with BHT or Pro-His-His [2]: at the same level as BHT
BHT-Relative Antioxidant Ability (%) β-Carotene Method [2]: 95.80%

Mim-Pro-His-His [Sample 1]
Radical scavenging ability (DPPH) compared in words with BHT or Pro-His-His [1]: at the same level as or higher than BHT
BHT-Relative Antioxidant Ability (%) DPPH Method [1]: 111.67%
IC50 (Mushroom tyrosinase): 16.4 µM
Antioxidant ability (β-carotene method) compared in words with BHT or Pro-His-His [2]: at the same level as BHT
BHT-Relative Antioxidant Ability (%) β-Carotene Method [2]: 93.86%

Mim-Trp-Trp [Sample 6]
Radical scavenging ability (DPPH) compared in words with BHT or Pro-His-His [1]: at the same level as or higher than BHT
BHT-Relative Antioxidant Ability (%) DPPH Method [1]: 117.34%
IC50 (Mushroom tyrosinase): 28.2 µM
BHT-Relative Antioxidant Ability (%) β-Carotene Method [2]: 72.56%

MimLys-Tyr [Sample 4]
BHT-Relative Antioxidant Ability (%) DPPH Method [1]: 75.33%
BHT-Relative Antioxidant Ability (%) β-Carotene Method [2]: 81.96%

Pro-His-His [Sample 1X, reference compound]
BHT-Relative Antioxidant Ability (%) DPPH Method [1]: 23.01%
BHT-Relative Antioxidant Ability (%) β-Carotene Method [2]: 63.00%

Pro-His-Mim [Sample 10]
BHT-Relative Antioxidant Ability (%) DPPH Method [1]: 26.45%
BHT-Relative Antioxidant Ability (%) β-Carotene Method [2]: 79.55%

Pro-His-Tyr [Sample 3X, reference compound]
BHT-Relative Antioxidant Ability (%) DPPH Method [1]: 9.63%
BHT-Relative Antioxidant Ability (%) β-Carotene Method [2]: 33.56%

Pro-Mim-His [Sample 7]
BHT-Relative Antioxidant Ability (%) DPPH Method [1]: 37.04%
BHT-Relative Antioxidant Ability (%) β-Carotene Method [2]: 73.07%

Tyr-Arg-Tyr [Sample 2X, reference compound]
BHT-Relative Antioxidant Ability (%) DPPH Method [1]: 11.31%
BHT-Relative Antioxidant Ability (%) β-Carotene Method [2]: 7.78%

Tyr-Lys-Tyr [Sample 4X, reference compound]
BHT-Relative Antioxidant Ability (%) DPPH Method [1]: 9.55%
BHT-Relative Antioxidant Ability (%) β-Carotene Method [2]: 18.88%
